Results taken from ChEMBL document CHEMBL3785034, “New isosteroidal alkaloids with tracheal relaxant effect from the bulbs of Fritillaria pallidiflora Schrenk” (Bioorg Med Chem Lett, 2016).

What was measured:
Trachea [1] = assay: Inhibition of KCl-induced contraction in Sprague-Dawley rat trachea assessed as maximal diastolic rate at 10^-4 mol/L (reference value: 6.6 +/- 0.3%); format: functional; set-up: scale not given: the % may be the effect or the level left
Trachea [2] = assay: Inhibition of KCl-induced contraction in Sprague-Dawley rat trachea assessed as tracheal tension at 10^-4 mol/L (reference value: 2.16 to 2.59 g); format: functional
Trachea [3] = assay: Inhibition of Ach-induced contraction in Sprague-Dawley rat trachea assessed as tracheal tension at 10^-4 mol/L (reference value: 0.63 to 0.98 g); format: functional
Trachea [4] = assay: Inhibition of Ach-induced contraction in Sprague-Dawley rat trachea assessed as maximal diastolic rate at 10^-8 mol/L (reference value: 14 +/- 1.8%); format: functional; set-up: scale not given: the % may be the effect or the level left
Trachea [5] = assay: Inhibition of Ach-induced contraction in Sprague-Dawley rat trachea assessed as tracheal tension at 10^-8 mol/L (reference value: 0.63 to 0.98 g); format: functional
Trachea [6] = assay: Inhibition of Ach-induced contraction in Sprague-Dawley rat trachea assessed as maximal diastolic rate at 10^-6 mol/L (reference value: 15.9 +/- 3%); format: functional; set-up: scale not given: the % may be the effect or the level left
Trachea [7] = assay: Inhibition of Ach-induced contraction in Sprague-Dawley rat trachea; format: functional, tissue-based
Trachea [8] = assay: Inhibition of KCl-induced contraction in Sprague-Dawley rat trachea assessed as tracheal tension at 10^-6 mol/L (reference value: 2.16 to 2.59 g); format: functional
Trachea [9] = assay: Inhibition of KCl-induced contraction in Sprague-Dawley rat trachea assessed as tracheal tension at 10^-9 mol/L (reference value: 2.16 to 2.59 g); format: functional
Trachea [10] = assay: Inhibition of Ach-induced contraction in Sprague-Dawley rat trachea assessed as tracheal tension at 10^-6 mol/L (reference value: 0.63 to 0.98 g); format: functional
Trachea [11] = assay: Inhibition of Ach-induced contraction in Sprague-Dawley rat trachea assessed as maximal diastolic rate at 10^-5 mol/L (reference value: 15.9 +/- 2.6%); format: functional; set-up: scale not given: the % may be the effect or the level left
Trachea [12] = assay: Inhibition of KCl-induced contraction in Sprague-Dawley rat trachea assessed as tracheal tension at 10^-7 mol/L (reference value: 2.16 to 2.59 g); format: functional
Trachea [13] = assay: Inhibition of Ach-induced contraction in Sprague-Dawley rat trachea assessed as maximal diastolic rate at 10^-4 mol/L (reference value: 15 +/- 4.2%); format: functional; set-up: scale not given: the % may be the effect or the level left
Trachea [14] = assay: Inhibition of KCl-induced contraction in Sprague-Dawley rat trachea assessed as maximal diastolic rate at 10^-6 mol/L (reference value: 6 +/- 1.2%); format: functional; set-up: scale not given: the % may be the effect or the level left
Trachea [15] = assay: Inhibition of Ach-induced contraction in Sprague-Dawley rat trachea assessed as tracheal tension at 10^-5 mol/L (reference value: 0.63 to 0.98 g); format: functional
Trachea [16] = assay: Inhibition of KCl-induced contraction in Sprague-Dawley rat trachea assessed as maximal diastolic rate at 10^-9 mol/L (reference value: 5.9 +/- 1.8%); format: functional; set-up: scale not given: the % may be the effect or the level left
Trachea [17] = assay: Inhibition of Ach-induced contraction in Sprague-Dawley rat trachea assessed as maximal diastolic rate at 10^-7 mol/L (reference value: 14.2 +/- 2.3%); format: functional; set-up: scale not given: the % may be the effect or the level left
Trachea [18] = assay: Inhibition of Ach-induced contraction in Sprague-Dawley rat trachea assessed as tracheal tension at 10^-9 mol/L (reference value: 0.63 to 0.98g); format: functional
Trachea [19] = assay: Inhibition of Ach-induced contraction in Sprague-Dawley rat trachea assessed as tracheal tension at 10^-7 mol/L (reference value: 0.63 to 0.98 g); format: functional
Trachea [20] = assay: Inhibition of KCl-induced contraction in Sprague-Dawley rat trachea assessed as tracheal tension at 10^-5 mol/L (reference value: 2.16 to 2.59 g); format: functional
Trachea [21] = assay: Inhibition of KCl-induced contraction in Sprague-Dawley rat trachea assessed as maximal diastolic rate at 10^-7 mol/L (reference value: 7 +/- 0.8%); format: functional; set-up: scale not given: the % may be the effect or the level left
Trachea [22] = assay: Inhibition of KCl-induced contraction in Sprague-Dawley rat trachea assessed as maximal diastolic rate at 10^-5 mol/L (reference value: 6 +/- 0.6%); format: functional; set-up: scale not given: the % may be the effect or the level left
Trachea [23] = assay: Inhibition of KCl-induced contraction in Sprague-Dawley rat trachea assessed as tracheal tension at 10^-8 mol/L (reference value: 2.16 to 2.59 g); format: functional
Trachea [24] = assay: Inhibition of Ach-induced contraction in Sprague-Dawley rat trachea at 1 to 100 umol/L; format: functional, tissue-based; conditions: read-out: pA2 (converted)
Trachea [25] = assay: Inhibition of Ach-induced contraction in Sprague-Dawley rat trachea assessed as maximal diastolic rate at 10^-9 mol/L (reference value: 12.7 +/- 2.8%); format: functional; set-up: scale not given: the % may be the effect or the level left
Trachea [26] = assay: Inhibition of KCl-induced contraction in Sprague-Dawley rat trachea assessed as maximal diastolic rate at 10^-8 mol/L (reference value: 7 +/- 0.3%); format: functional; set-up: scale not given: the % may be the effect or the level left

Row | Structure (SMILES) | Activity (Trachea [1]) | Activity (Trachea [2]) | Activity (Trachea [3]) | Activity (Trachea [4]) | Activity (Trachea [5]) | Activity (Trachea [6]) | Activity (Trachea [8]) | Activity (Trachea [9]) | Activity (Trachea [10]) | Activity (Trachea [11]) | Activity (Trachea [12]) | Activity (Trachea [13]) | Activity (Trachea [14]) | Activity (Trachea [15]) | Activity (Trachea [16]) | Activity (Trachea [17]) | Activity (Trachea [18]) | Activity (Trachea [19]) | Activity (Trachea [20]) | Activity (Trachea [21]) | further results
1 | C[C@H]1CC[C@H]2N(C1)C[C@H]1[C@@H]3C[C@H]4[C@@H](CC(=O)[C@H]5C[C@@H](O[C@@H]6O[C@H](CO)[C@@H](O)[C@H](O)[C@H]6O)CC[C@@]54C)[C@@H]3CC[C@@H]1[C@@]2(C)O | 8.3% | 2.33 g | 0.84 g | 13.8% | 0.84 g | 15% | 2.34 g | 2.33 g | 0.84 g | 15.9% | 2.36 g | 15.6% | 7.5% | 0.83 g | 7.8% | 14.9% | 0.85 g | 0.83 g | 2.37 g | 6.4% | EC50 (Trachea [7]): 3000 nM; Activity (Trachea [22]): 6.4%; Activity (Trachea [23]): 2.37 g; Kb (Trachea [24]): 2630 nM; Activity (Trachea [25]): 12.2%; Activity (Trachea [26]): 6.2%
2 | C[C@H]1CC[C@H]2[C@@H](C)[C@H]3CC[C@@H]4[C@@H](C[C@H]5[C@H]4CC(=O)[C@H]4C[C@@H](O)CC[C@@]45C)[C@@H]3CN2C1 | 2.9% | 2.21 g | 0.54 g | 16.3% | 0.56 g | 19.8% | 2.2 g | 2.16 g | 0.55 g | 19.5% | 2.2 g | 20.9% | 3.2% | 0.55 g | 5.7% | 17.9% | 0.59 g | 0.56 g | 2.2 g | 3.9% | Activity (Trachea [22]): 3.2%; Activity (Trachea [23]): 2.18 g; Activity (Trachea [25]): 12.2%; Activity (Trachea [26]): 5.3%
3 | Cn1c(=O)c2[nH]cnc2n(C)c1=O [AMINOPHYLLINE] |  |  |  |  |  |  |  |  |  |  |  |  |  |  |  |  |  |  |  |  | EC50 (Trachea [7]): 50 nM; Kb (Trachea [24]): 47.9 nM
4 | C[C@H]1CC[C@@H]2N(C1)C[C@H]1[C@@H]3C[C@H]4[C@@H](CC(=O)[C@H]5C[C@@H](O[C@@H]6O[C@H](CO)[C@@H](O)[C@H](O)[C@H]6O)CC[C@@]54C)[C@@H]3CC[C@H]1[C@]2(C)O | 3% | 2.52 g | -0.13 g | 15.2% | 0.78 g | 20.5% | 2.45 g | 2.4 g | 0.74 g | 22.7% | 2.45 g | 129.3% | 5.3% | 0.71 g | 7.5% | 17.7% | 0.81 g | 0.76 g | 2.47 g | 5.2% | Activity (Trachea [22]): 4.5%; Activity (Trachea [23]): 2.45 g; Activity (Trachea [25]): 12.6%; Activity (Trachea [26]): 5.2%
5 | Cc1c([C@H](C)[C@@H]2NC[C@@H](C)C[C@H]2O)ccc2c1C[C@H]1[C@H]2CC(=O)[C@H]2C[C@@H](O)CC[C@@]21C | 13.9% | 2.04 g | -0.11 g | 16% | 0.53 g | 21.3% | 2.2 g | 2.23 g | 0.5 g | 24.5% | 2.22 g | 115.2% | 7.2% | 0.48 g | 5.7% | 18.9% | 0.54 g | 0.52 g | 2.18 g | 6.1% | Activity (Trachea [22]): 8%; Activity (Trachea [23]): 2.25 g; Activity (Trachea [25]): 13.6%; Activity (Trachea [26]): 4.8%
6 | C[C@H]1CC[C@H]2[C@@](C)(O)[C@@H]3CC[C@@H]4[C@@H](C[C@H]5[C@H]4CC(=O)[C@H]4C[C@@H](O)CC[C@@]45C)[C@@H]3C[N+]2([O-])C1 (stereo partly specified) | 5.7% | 2.31 g | 0.55 g | 17.2% | 0.6 g | 25.8% | 2.32 g | 2.3 g | 0.57 g | 21.6% | 2.3 g | 31.3% | 5.5% | 0.58 g | 6.4% | 27% | 0.61 g | 0.56 g | 2.31 g | 6.7% | Activity (Trachea [22]): 6.1%; Activity (Trachea [23]): 2.29 g; Activity (Trachea [25]): 15.6%; Activity (Trachea [26]): 6.9%
7 | COC(=O)C1=C(C)NC(C)=C(C(=O)OC)C1c1ccccc1[N+](=O)[O-] [NIFEDIPINE] |  |  |  |  |  |  |  |  |  |  |  |  |  |  |  |  |  |  |  |  | EC50 (Trachea [7]): 6500 nM; Kb (Trachea [24]): 6030 nM
8 | C[C@H]1CC[C@@H]2N(C1)C[C@H]1[C@@H]3C[C@H]4[C@@H](CC(=O)[C@H]5C[C@@H](O)CC[C@@]54C)[C@@H]3CC[C@H]1[C@]2(C)O [IMPERIALINE] | 7.2% | 2.41 g | 0.48 g | 28.1% | 0.55 g | 40.4% | 2.43 g | 2.44 g | 0.5 g | 45.7% | 2.44 g | 50.7% | 6.4% | 0.49 g | 5.7% | 35.3% | 0.58 g | 0.52 g | 2.42 g | 6% | EC50 (Trachea [7]): 4400 nM; Activity (Trachea [22]): 6.8%; Activity (Trachea [23]): 2.43 g; Kb (Trachea [24]): 3.89 nM; Activity (Trachea [25]): 14.5%; Activity (Trachea [26]): 6.3%
9 | C[C@@H]1CN[C@H]2[C@@H](C)[C@@]3(CC[C@]4(O)[C@@H]5CC(=O)[C@H]6C[C@@H](O)CC[C@]6(C)[C@H]5C[C@]45O[C@]53C)O[C@@H]2C1 | 2.1% | 2.45 g | 0.53 g | 18.3% | 0.55 g | 27.1% | 2.39 g | 2.34 g | 0.52 g | 30.2% | 2.36 g | 23.4% | 4.5% | 0.5 g | 6.3% | 23% | 0.56 g | 0.53 g | 2.42 g | 5.6% | Activity (Trachea [22]): 3.3%; Activity (Trachea [23]): 2.37 g; Activity (Trachea [25]): 15.2%; Activity (Trachea [26]): 5.1%
